The values below come from ChEMBL document CHEMBL1130755, “Synthesis of a new class of camptothecin derivatives, the long-chain fatty acid esters of 10-hydroxycamptothecin, as a potent prodrug candidate, and their in vitro metabolic conversion by carboxylesterases” (Bioorg Med Chem Lett, 1998).

One data set concerns Liver carboxylesterase 1 (Sus scrofa). Briefly: Specific activity (hydrolysis) by purified carboxylesterase isozyme P1 against microsomes in pig liver.
In turn, `CCCCCCCCCCCC(=O)Oc1ccc2nc3c(cc2c1)Cn1c-3cc2c(c1=O)COC(=O)[C@]2(O)CC` had an Activity of 42.1 nM/mg/min.

In the case of `CCCCCCCCCC(=O)Oc1ccc2nc3c(cc2c1)Cn1c-3cc2c(c1=O)COC(=O)[C@]2(O)CC`, the Activity amounted to 37.4 nM/mg/min.

On to `CCCCCCCCCCCCCCCC(=O)Oc1ccc2nc3c(cc2c1)Cn1c-3cc2c(c1=O)COC(=O)[C@]2(O)CC`, for which the Activity came out at 9.13 nM/mg/min.

`CCCCCCCCCCCCCCCCCC(=O)Oc1ccc2nc3c(cc2c1)Cn1c-3cc2c(c1=O)COC(=O)[C@]2(O)CC`: the Activity amounted to 3.02 nM/mg/min.

The compound `CCCCCCCCCCCCCCCCCCCC(=O)Oc1ccc2nc3c(cc2c1)Cn1c-3cc2c(c1=O)COC(=O)[C@]2(O)CC` had an Activity of 0.854 nM/mg/min.

Another data set deals with T1, Liver carboxylesterase 1 (Homo sapiens, UniProt P23141).
T1 sequence (P23141 whole entry): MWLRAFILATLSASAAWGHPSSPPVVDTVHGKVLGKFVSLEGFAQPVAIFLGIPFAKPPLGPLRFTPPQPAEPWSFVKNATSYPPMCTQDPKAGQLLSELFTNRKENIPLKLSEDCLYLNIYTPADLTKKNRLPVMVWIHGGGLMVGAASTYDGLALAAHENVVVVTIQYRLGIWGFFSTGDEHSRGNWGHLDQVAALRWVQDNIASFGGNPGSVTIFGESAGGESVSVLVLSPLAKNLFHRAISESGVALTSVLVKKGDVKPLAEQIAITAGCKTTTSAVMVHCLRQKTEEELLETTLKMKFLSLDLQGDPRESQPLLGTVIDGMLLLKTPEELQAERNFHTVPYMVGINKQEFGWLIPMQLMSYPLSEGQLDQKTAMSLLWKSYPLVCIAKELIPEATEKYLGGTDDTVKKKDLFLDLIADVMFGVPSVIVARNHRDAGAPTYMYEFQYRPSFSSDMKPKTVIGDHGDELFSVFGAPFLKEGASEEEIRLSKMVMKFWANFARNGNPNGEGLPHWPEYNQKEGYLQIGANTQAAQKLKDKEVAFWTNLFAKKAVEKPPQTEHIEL
Briefly: Specific activity (hydrolysis) by purified carboxylesterase isozyme HU1 against microsomes in human liver.
As for `CCCCCCCCCCCC(=O)Oc1ccc2nc3c(cc2c1)Cn1c-3cc2c(c1=O)COC(=O)[C@]2(O)CC`, the Activity is 15.3 nmol/min/mg.

In turn, `CCCCCCCCCC(=O)Oc1ccc2nc3c(cc2c1)Cn1c-3cc2c(c1=O)COC(=O)[C@]2(O)CC` showed an Activity of 27.9 nmol/min/mg.

With `CCCCCCCCCCCCCCCC(=O)Oc1ccc2nc3c(cc2c1)Cn1c-3cc2c(c1=O)COC(=O)[C@]2(O)CC`, the Activity came out at 1.58 nmol/min/mg.

`CCCCCCCCCCCCCCCCCC(=O)Oc1ccc2nc3c(cc2c1)Cn1c-3cc2c(c1=O)COC(=O)[C@]2(O)CC`: the Activity was found to be 1.27 nmol/min/mg.

For `CCCCCCCCCCCCCCCCCCCC(=O)Oc1ccc2nc3c(cc2c1)Cn1c-3cc2c(c1=O)COC(=O)[C@]2(O)CC`, the Activity came out at 1.07 nmol/min/mg.

In a further data set the target is T2, Carboxylesterase 1E (Rattus norvegicus, UniProt Q63108).
T2 sequence (Q63108 whole entry): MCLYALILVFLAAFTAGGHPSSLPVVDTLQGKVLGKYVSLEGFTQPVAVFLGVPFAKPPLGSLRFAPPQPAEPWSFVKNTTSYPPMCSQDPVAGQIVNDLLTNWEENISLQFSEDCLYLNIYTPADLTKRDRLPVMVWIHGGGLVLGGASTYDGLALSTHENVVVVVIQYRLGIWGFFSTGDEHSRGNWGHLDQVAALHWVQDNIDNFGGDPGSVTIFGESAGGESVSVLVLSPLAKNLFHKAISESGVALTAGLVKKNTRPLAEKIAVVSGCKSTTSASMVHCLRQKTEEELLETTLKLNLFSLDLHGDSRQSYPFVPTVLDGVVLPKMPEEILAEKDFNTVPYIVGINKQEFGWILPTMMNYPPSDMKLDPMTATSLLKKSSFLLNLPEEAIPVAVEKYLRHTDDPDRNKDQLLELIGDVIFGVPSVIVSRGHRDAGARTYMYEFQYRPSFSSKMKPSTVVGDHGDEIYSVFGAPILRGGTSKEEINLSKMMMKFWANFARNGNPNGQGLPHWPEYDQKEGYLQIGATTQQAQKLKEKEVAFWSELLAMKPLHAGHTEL
Briefly: Specific activity (hydrolysis) by purified carboxylesterase isozyme RH1 against microsomes in rat liver.
Consider `CCCCCCCCCCCC(=O)Oc1ccc2nc3c(cc2c1)Cn1c-3cc2c(c1=O)COC(=O)[C@]2(O)CC`, for which the Activity was determined as 19.1 nmol/min/mg.

For `CCc1c2c(nc3ccc(OC(=O)N4CCC(N5CCCCC5)CC4)cc13)-c1cc3c(c(=O)n1C2)COC(=O)[C@]3(O)CC` [IRINOTECAN], the Activity turned out to be 0.259 nmol/min/mg.

Take `CCCCCCCCCC(=O)Oc1ccc2nc3c(cc2c1)Cn1c-3cc2c(c1=O)COC(=O)[C@]2(O)CC`: the Activity was found to be 17.4 nmol/min/mg.

`CCCCCCCCCCCCCCCC(=O)Oc1ccc2nc3c(cc2c1)Cn1c-3cc2c(c1=O)COC(=O)[C@]2(O)CC` gave an Activity of 2.33 nmol/min/mg.

The compound `CCCCCCCCCCCCCCCCCC(=O)Oc1ccc2nc3c(cc2c1)Cn1c-3cc2c(c1=O)COC(=O)[C@]2(O)CC` showed an Activity of 0.698 nmol/min/mg.

The compound `CCCCCCCCCCCCCCCCCCCC(=O)Oc1ccc2nc3c(cc2c1)Cn1c-3cc2c(c1=O)COC(=O)[C@]2(O)CC` displayed an Activity of 0.183 nmol/min/mg.
